A value given as a limit tells only on which side of the number the result lay.

A short description of the data set: Conversion of the aqueous slurry into form B, followed by XRPD. Format: physicochemical. The settings on record: 30 parts Insecticide A / 70 parts water, stirred. On the procedure:
The recorded 2θ values were used to calculate the stated interplanar spacings d. The intensity of the peaks (y-axis: linear intensity counts) is plotted versus the 2θ angle (x-axis in degrees 2θ). The formulation was prepared as follows: • (a) 30 parts by weight of Insecticide A, in the form of a powder, and 70 parts by weight of water were mixed in a vessel to obtain an aqueous slurry. The particle diameter of the particles was in the range 30-800 μm. […] The temperature of grinding head was controlled at 5° C. The milling was stopped when an average particle size of 1.5-2 μm (volume average) had been achieved (measured with Malvern Mastersizer 2000). To the thus obtained suspension the remaining antifoaming agent, the preservative and the thickener and water were added to with stirring to ensure homogeneous distribution of components. The amount of water was chosen that the final concentration of the pyripyropene derivative in the formulation was 100 g/l.

As for `C[C@]1(COC(=O)C2CC2)[C@@H]2C[C@H](O)[C@@]3(C)Oc4cc(-c5cccnc5)oc(=O)c4[C@H](O)[C@@H]3[C@@]2(C)CC[C@@H]1OC(=O)C1CC1` [Insecticide A], the “Conversion time (conversion of at least 90% into form B)” value by setting is: (20° C.) less than 190 h; (40° C.) less than 48 h; (60° C.) 12 h.

Source of the values: patent publication US9861104B2, “Method for producing an aqueous suspension concentrate formulation of a pyripyropene insecticide” (BASF SE, priority 2012, dated 2018).
